Values of other authors, collected in patent US20070026067A1, “Liquid formulations for controlled delivery of benzisoxazole derivatives” (priority 2005, published 2007).

Tests used:
[1] = in vivo

SMILES	solubility in water	half-life [1]
Cc1nc2n(c(=O)c1CCN1CCC(c3noc4cc(F)ccc34)CC1)CCCC2O (stereo not drawn) [Paliperidone]	practically insoluble	about one
Cc1nc2n(c(=O)c1CCN1CCC(c3noc4cc(F)ccc34)CC1)CCCC2 [Risperidone]	practically insoluble	–
